The values that follow are results of earlier work, collected in PubChem BioAssay AID1259409 (Chemical Carcinogenesis Research Information System (CCRIS), 2018).

Each structure is given as a SMILES string.

In this data set the test system is rodent chemically induced tumor inhibition, incidence and multiplicity. In words: CCRIS tumor inhibitor studies. To be noted: Dose [Inhibitor]: 0, Route [Inhibitor]: INTRAPERITONEAL, Species: MOUSE, Promoter: NONE USED.

On to `NC(=S)S`, for which the “tumour outcome (control, treated, inhibition, significance)” value is, setting by setting: (Carcinogen: ETHYL CARBAMATE, 51-79-6, 0.25 MG/G IN 0.005 ML OF 0.9% SALINE ADMINISTERED 30 MIN PRIOR TO CARCINOGEN DOSE (STUDY DURATION: 26 WK), Strain/Sex: STRAIN-A/FEMALE, Target Tissue: Type of Lesion: LUNG: ADENOMA, Dose [Carcinogen]: 0.5 MG/G ONCE) 100%, 100%, 0%, not calculated; (Carcinogen: ETHYL CARBAMATE, 51-79-6, 0.25 MG/G IN 0.005 ML OF 0.9% SALINE FIRST DOSE ADMINISTERED 30 MIN PRIOR TO CARCINOGEN DOSE FOLLOWED BY A SECOND DOS, Strain/Sex: STRAIN-A/FEMALE, Target Tissue: Type of Lesion: LUNG: ADENOMA, Dose [Carcinogen]: 0.25 MG/G ONCE) 100%, 100%, 0%, not calculated; (Carcinogen: ETHYL CARBAMATE, 51-79-6, 0.25 MG/G IN 0.005 ML OF 0.9% SALINE FIRST DOSE ADMINISTERED 30 MIN PRIOR TO CARCINOGEN DOSE FOLLOWED BY A SECOND DOS, Strain/Sex: STRAIN-A/FEMALE, Target Tissue: Type of Lesion: LUNG: ADENOMA, Dose [Carcinogen]: 0.5 MG/G ONCE) 100%, 100%, 0%, not calculated; (Carcinogen: ETHYL CARBAMATE, 51-79-6, 0.5 MG/G IN 0.01 ML OF 0.9% SALINE ADMINISTERED 30 MIN PRIOR TO CARCINOGEN DOSE (STUDY DURATION: 7 MO), Strain/Sex: B6C3F1/MALE, Target Tissue: Type of Lesion: LIVER: HEPATOMA, Dose [Carcinogen]: 0.5 MG/G ONCE) 26/26 (100%), 31/31 (100%), 0%, not calculated; (Carcinogen: ETHYL CARBAMATE, 51-79-6, 0.5 MG/G IN 0.01 ML OF 0.9% SALINE ADMINISTERED 30 MIN PRIOR TO CARCINOGEN DOSE (STUDY DURATION: 8 MO), Strain/Sex: B6C3F1/MALE, Target Tissue: Type of Lesion: LIVER: HEPATOMA, Dose [Carcinogen]: 0.125 MG/G ONCE) 24/24 (100%), 24/25 (96%), 4%, not calculated; (Carcinogen: ETHYL CARBAMATE, 51-79-6, 0.5 MG/G IN 0.01 ML OF 0.9% SALINE ADMINISTERED 30 MIN PRIOR TO CARCINOGEN DOSE (STUDY DURATION: 8 MO), Strain/Sex: B6C3F1/MALE, Target Tissue: Type of Lesion: LIVER: HEPATOMA, Dose [Carcinogen]: 0.25 MG/G ONCE) 17/17 (100%), 28/29 (97%), 3%, not calculated. Further, the “tumour outcome (control, treated, inhibition, significance)” value was 40%, 15%, 62%, not calculated (Carcinogen: ETHYL CARBAMATE, 51-79-6, 0.5 MG/G IN 0.01 ML OF 0.9% SALINE ADMINISTERED 30 MIN PRIOR TO CARCINOGEN DOSE (STUDY DURATION: 12 MO), Strain/Sex: B6C3F1/FEMALE, Target Tissue: Type of Lesion: HARDERIAN GLAND: TUMOR, Dose [Carcinogen]: 0.5 MG/G ONCE); 68%, 19%, 72%, not calculated (Carcinogen: ETHYL CARBAMATE, 51-79-6, 0.5 MG/G IN 0.01 ML OF 0.9% SALINE ADMINISTERED 30 MIN PRIOR TO CARCINOGEN DOSE (STUDY DURATION: 12 MO), Strain/Sex: B6C3F1/FEMALE, Target Tissue: Type of Lesion: LIVER: HEPATOMA, Dose [Carcinogen]: 0.5 MG/G ONCE); 48%, 12%, 75%, not calculated (Carcinogen: ETHYL CARBAMATE, 51-79-6, 0.5 MG/G IN 0.01 ML OF 0.9% SALINE ADMINISTERED 30 MIN PRIOR TO CARCINOGEN DOSE (STUDY DURATION: 12 MO), Strain/Sex: B6C3F1/FEMALE, Target Tissue: Type of Lesion: LUNG: ADENOMA, Dose [Carcinogen]: 0.5 MG/G ONCE); 100%, 100%, 0%, not calculated (Carcinogen: VINYL CARBAMATE, 15805-73-9, 0.25 MG/G IN 0.005 ML OF 0.9% SALINE ADMINISTERED 30 MIN PRIOR TO CARCINOGEN DOSE (STUDY DURATION: 26 WK), Strain/Sex: STRAIN-A/FEMALE, Target Tissue: Type of Lesion: LUNG: ADENOMA, Dose [Carcinogen]: 0.025 MG/G ONCE); 100%, 100%, 0%, not calculated (Carcinogen: VINYL CARBAMATE, 15805-73-9, 0.5 MG/G IN 0.005 ML OF 0.9% SALINE ADMINISTERED 30 MIN PRIOR TO CARCINOGEN DOSE (STUDY DURATION: 26 WK), Strain/Sex: STRAIN-A/FEMALE, Target Tissue: Type of Lesion: LUNG: ADENOMA, Dose [Carcinogen]: 0.025 MG/G ONCE); 24/24 (100%), 29/29 (100%), 0%, not calculated (Carcinogen: VINYL CARBAMATE, 15805-73-9, 0.5 MG/G IN 0.01 ML OF 0.9% SALINE ADMINISTERED 30 MIN PRIOR TO CARCINOGEN DOSE (STUDY DURATION: 7 MO), Strain/Sex: B6C3F1/MALE, Target Tissue: Type of Lesion: LIVER: HEPATOMA, Dose [Carcinogen]: 0.025 MG/G ONCE). Besides, the “tumour outcome (control, treated, inhibition, significance)” value by setting is: (Carcinogen: VINYL CARBAMATE, 15805-73-9, 0.5 MG/G IN 0.01 ML OF 0.9% SALINE ADMINISTERED 30 MIN PRIOR TO CARCINOGEN DOSE (STUDY DURATION: 8 MO), Strain/Sex: B6C3F1/MALE, Target Tissue: Type of Lesion: LIVER: HEPATOMA, Dose [Carcinogen]: 0.003 MG/G ONCE) 29/29 (100%), 27/27 (100%), 0%, not calculated; (Carcinogen: VINYL CARBAMATE, 15805-73-9, 0.5 MG/G IN 0.01 ML OF 0.9% SALINE ADMINISTERED 30 MIN PRIOR TO CARCINOGEN DOSE (STUDY DURATION: 8 MO), Strain/Sex: B6C3F1/MALE, Target Tissue: Type of Lesion: LIVER: HEPATOMA, Dose [Carcinogen]: 0.008 MG/G ONCE) 23/23 (100%), 27/27 (100%), 0%, not calculated; (Carcinogen: VINYL CARBAMATE, 15805-73-9, 0.5 MG/G IN 0.01 ML OF 0.9% SALINE ADMINISTERED 30 MIN PRIOR TO CARCINOGEN DOSE (STUDY DURATION: 12 MO), Strain/Sex: B6C3F1/FEMALE, Target Tissue: Type of Lesion: HARDERIAN GLAND: TUMOR, Dose [Carcinogen]: 0.025 MG/G ONCE) 68%, 22%, 68%, not calculated; (Carcinogen: VINYL CARBAMATE, 15805-73-9, 0.5 MG/G IN 0.01 ML OF 0.9% SALINE ADMINISTERED 30 MIN PRIOR TO CARCINOGEN DOSE (STUDY DURATION: 12 MO), Strain/Sex: B6C3F1/FEMALE, Target Tissue: Type of Lesion: LIVER: HEPATOMA, Dose [Carcinogen]: 0.025 MG/G ONCE) 96%, 30%, 69%, not calculated; (Carcinogen: VINYL CARBAMATE, 15805-73-9, 0.5 MG/G IN 0.01 ML OF 0.9% SALINE ADMINISTERED 30 MIN PRIOR TO CARCINOGEN DOSE (STUDY DURATION: 12 MO), Strain/Sex: B6C3F1/FEMALE, Target Tissue: Type of Lesion: LUNG: ADENOMA, Dose [Carcinogen]: 0.025 MG/G ONCE) 54%, 9%, 83%, not calculated.
